The text below walks through data of US20260265230A1, “FLUORESCENT AND SELF-ASSEMBLING UREIDOPYRIMIDINONE CONJUGATES AND PREPARATION THEREOF” (COUNCIL OF SCIENTIFIC AND INDUSTRIAL RESEARCH AN INDIAN …, priority 2022, published 2026).

The nature of this series: Fluorescent studies (absorption and emission spectra) in DMSO. Type of series: physicochemical. As to conditions: concentration 1×10^−5 M; for maximum absorption wavelength (λabs) / maximum emission wavelength (λems): FIG. 1. From the text:
FIG. 1 represents absorption and emission spectra of (a) coumarin-UpyFlAA (6) and (b) hydroquinone-UPy-FlAA(10), in accordance with an implementation of the present disclosure.

Regarding `COc1ccc(OC)c(-c2cc(=O)nc(NC(=O)NCCCC[C@H](NC(=O)OC(C)(C)C)C(=O)O)[nH]2)c1` [Compound 10, N2-(tert-butoxycarbonyl)-N6-((6-(2,5-dimethoxyphenyl)-4-oxo-1,4-dihydropyrimidin-2-yl)carbamoyl)lysine], the “fluorescence (relative fluorescence intensity)” value is on record as “high level of fluorescence”, the “maximum absorption wavelength (λabs)” value amounted to 310 nm and the “maximum emission wavelength (λems)” value was found to be 421 nm.
Regarding `CCN(CC)c1ccc2cc(-c3cc(=O)[nH]c(NC(=O)NCCCC[C@H](NC(=O)OC(C)(C)C)C(=O)O)n3)c(=O)oc2c1` [Compound 6, N2-(tert-butoxycarbonyl)-N6-((4-(7-(diethylamino)-2-oxo-2H-chromen-3-yl)-6-oxo-1,6-dihydropyrimidin-2-yl)carbamoyl)lysine], the “fluorescence (relative fluorescence intensity)” value is “high level of fluorescence”, the “maximum absorption wavelength (λabs)” value stood at 437 nm and the “maximum emission wavelength (λems)” value was determined as 487 nm.
